This note sets out measurements from publication PMC8961551, “Potential Anticancer Agents against Melanoma Cells Based on an As-Synthesized Thiosemicarbazide Derivative” (Biomolecules, 2022).

In the assay the test system is melanoma line G-361. Description: Two-step cell cycle analysis (DAPI, image cytometry). It counts as cell-based, human. Conditions: G-361, 24 h, IC50 concentration. On the procedure:
Cell-cycle assays was performed using NC 3000 system (Chemometec., Lillerød, Denmark) according to manufacturer’s protocol for the two-step cell cycle analysis. The G-361 cells were seeded in 12-well plates at a density of 1 × 10^5 cells/well, and the tested compounds with concentration IC50 were added when 70–80% of confluence was achieved. After 24 h of incubation with tested compounds, the cells were washed with PBS and thoroughly resuspended in 250 μL lysis buffer supplemented with 10 μg/mL DAPI. After 5 min incubation at 37 °C, cells were mixed with 250 μL stabilization buffer and loaded into the 8-chamber slide NC-Slide A8 (Chemometec., Lillerød, Denmark). Cellular fluorescence was quantified using a NucleoCounter® NC-3000™ image cytometer (Chemometec., Lillerød, Denmark). The obtained DNA content histograms were used to demarcate different phases of the cell cycle in tested samples. The experiments were performed three times with three replicates.

For the compound `O=C(COc1ccc(Cl)cc1Cl)NNC(=S)Nc1cccc2ccccc12` [PK9, 1-(2,4-dichlorophenoxy)acetyl-4-(1-naphtyl)thiosemicarbazide], the “effect on cell cycle” value is on record as “no cell cycle arrest was observed”.
